Source: US12655108B2, “Heterocyclic compound as TYK2 pseudokinase domain inhibitor, synthetic method, and use” (ZHEJIANG WENDA PHARMA TECHNOLOGY LTD., priority 2021, dated 2026)
pIC50: −log10 of the molar value.

How the values were obtained:
[1] = system: pSTAT5 in CD3+ cells (IFN-α stimulated); test: Inhibition of IFN-α-induced pSTAT5 expression in CD3+ cells of human whole blood, FACS detection; assay type: cell-based; conditions: 0.25 h, fresh human whole blood, IFN-α 20 ng/ml, 15 minutes
Protocol: The Inhibitory Effect of Compounds on the expression of pSTAT5 in CD3+ Cells Using FACS Detection • 1. Experimental Materials and instruments: • 1.1. Experimental reagents • DMSO, Sigma, Cat #D2650-100 ml, stored at room temperature. • Perm buffer III, BD Biosciences, Cat #558050, stored at 4° C. • Lyse/Fix buffer, BD Biosciences, Cat #558049, stored at room temperature. • EDTA, Invitrogen, Cat #15575-038, stored at room temperature. • PBS, Hyclone, Cat #SH30256.01, stored at 4° C. • PE Mouse Anti-Human CD3, BD Biosciences, Cat #555333, stored at 4° C. • Mouse anti-human Phospho-STATS (pY694) (Alexa Fluor® 647 Conjugate), BD Biosciences, Cat #562076, stored at 4° C. • IFN-α, Biolegend, Cat #592702 • 1.2 Experimental consumables • Microplate, 96 Well, PP, v-bottom, Greiner, Cat #GN651201-100EA. • 5 ml polystyrene round bottom tube, FALCON, Cat #04318011. • 96 square well storage plate, Thermo, Cat #AB-0661. • 96-well plate, Corning, Cat #3599. • 1.3 Instruments • CO2 cell incubator: MCO-15AC (Thermo) • Pipette: 0.2-10 μL, 20-200 μL, 200-1000 μL (Thermo) • Multichannel pipette: 0.2-10 μL, 5-50 μL, 20-300 μL (Raining) • Centrifuge: Thermo Centrifuge ST 40R; Thermo LEGEND Micro 21R • Water system: Millipore Milli-Q Reference system • Freezer: Haier ultralow temperature freezer • Haier 4 centigrade refrigerator • Haier −20 centigrade freezer • Vortex: EARTH REQUIRED • Plate Shaker: QI LIN BEI ER; MH-2 • Flow Cytometer: BD FACSVerse™ Flow Cytometer • 2 Experimental method: • 2.1 Compound Dilution • 1) On the day of experiment, the compound was prepared into a 10 mM solution with DMSO, diluted to 1.5 mM with DMSO, and then diluted to 8 gradient concentrations with 3-fold dilutions. • 2) 5 μl of diluted compound was transferred into 120 ul of DPBS solution with 0.1% BSA. • 3) Positive and negative control groups were set up, with an addition of 0.5% DMSO to the positive and negative control groups. • 2.2 Experimental procedure • 1) 67.5 ul of fresh human whole blood was added to the 96-well cell culture plate. • 2) 3.5 ul of diluted compound was added and mixed well. • 3) Incubating in a 37° C. incubator for 60 minutes. • 4) IFN-α was diluted in DPBS containing 0.1% BSA to 400 ng/ml, and PE anti-hCD3 antibody was diluted in DPBS containing 0.1% BSA to 5-fold. After the above 60-minute incubation, diluted PE anti-hCD3 antibody was added at 5 ul per well and diluted IFN-α was added at 4 ul per well, i.e., the final concentration of IFN-α per well was 20 ng/ml. • 5) Incubating in a 37° C. incubator for 15 minutes. • 6) All cells were transferred to a 96-well deep well plate and 1 ml of 37° C. preheated lysis/fix buffer was added. • 7) Incubating at 37° C. in dark for 10 minutes. • 8) Centrifuging at 600 g for 5 minutes and then the supernatant was discarded. Washing by adding 1 ml PBS for twice and centrifuging. • 9) 1 ml of Perm buffer III was added to cell precipitation. • 10) Incubating at 37° C. in dark for 30 minutes. • 11) Centrifuging at 600 g for 5 minutes and then the supernatant was discarded. Washing by adding 1 ml PBS for twice and centrifuging. • 12) APC anti-human pSTAT5 antibody was diluted in staining buffer, and then added to cell wells at 100 ul per well and mixed well. • 13) Incubating at room temperature for 40 minutes. • 14) Staining buffer was added and washed twice, 1 ml for each well, centrifuging at 600 g for 5 minutes. • 15) After discarding the supernatant, the cell precipitation was resuspended in 300 ul of staining buffer. • 16) Sample loading and analysing in a flow cytometer.

TYK2(JH2) = TYK2(JH2) (Homo sapiens, UniProt P29597); test: Pseudokinase (JH2) experiment with Tb/Tracer, TYK2-JH2; assay type: binding
Chain of TYK2(JH2) (P29597 589-875 limits assumed): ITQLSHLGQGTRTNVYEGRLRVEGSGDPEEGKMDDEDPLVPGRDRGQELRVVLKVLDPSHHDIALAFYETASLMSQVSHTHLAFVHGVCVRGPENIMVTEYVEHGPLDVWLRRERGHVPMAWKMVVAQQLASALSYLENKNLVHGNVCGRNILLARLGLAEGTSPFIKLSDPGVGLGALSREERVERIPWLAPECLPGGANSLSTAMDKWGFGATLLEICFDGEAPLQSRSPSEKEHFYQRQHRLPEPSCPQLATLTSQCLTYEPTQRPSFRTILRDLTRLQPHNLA
Protocol: (§1) • 1. Experimental method • 1.1. Pseudokinase (JH2) experiment operation was as follows: • 1.1.1. The compound was dissolved with DMSO to a storage concentration of 10 mM. • 1.1.2. A compound concentration of 200 times the final concentration was prepared in a compound dilution plate, which was diluted from the highest concentration point with a total of 4 concentration points using the 27 times dilution method, and then transferred to the Echo plate. • 1.1.3. The compound was flushed from the Echo plate to the 384 well experimental plate using an Echo instrument, thereby obtaining a total of 11 concentration points of the compound with three-fold dilution matrix. • 1.1.4. 5 ul of TYK2-JH2 or JAK1-JH2 pseudokinase, 3 times the final concentration, was added to the 384-well experimental plate. • 1.1.5. 5 ul of Tb, 3 times the final concentration, was added to the 384-well experimental plate. • 1.1.6. 5 ul of Tracer, 3 times the final concentration, was added to the 384-well experimental plate. • 1.1.7. Centrifuging for 30 seconds and incubating at room temperature for 60 minutes. • 1.1.8. The fluorescence ratio of 520 nm to 495 nm was read using Envision Microplate Reader (PerkinElmer). • 1.2. Kinase (JH1) experiment operation was as follows: • 1.2.1. […] The fluorescence ratio at 665 nm and 615 nm were read using Envision Microplate Reader (PerkinElmer). • 1.3. […]

TYK2(JH1) = molecular target: T1, TYK2(JH1) (Homo sapiens, UniProt P29597); test: Kinase (JH1) experiment, TYK2(JH1); assay type: biochemical
T1 construct: TYK2-JH1 (the kinase domain of TYK2)
T1 sequence (P29597 897-1176 limits assumed): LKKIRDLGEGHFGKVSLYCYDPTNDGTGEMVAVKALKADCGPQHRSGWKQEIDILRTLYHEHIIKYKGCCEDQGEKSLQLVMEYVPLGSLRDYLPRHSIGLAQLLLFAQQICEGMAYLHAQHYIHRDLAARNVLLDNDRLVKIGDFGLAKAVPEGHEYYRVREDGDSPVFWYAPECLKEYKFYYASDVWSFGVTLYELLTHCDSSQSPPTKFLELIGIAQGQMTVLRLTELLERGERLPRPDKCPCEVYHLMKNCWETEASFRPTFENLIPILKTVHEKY
Protocol: as §1

JAK3(JH1) = molecular target: T2, JAK3(JH1) (Homo sapiens, UniProt P52333); test: Kinase (JH1) experiment, JAK3(JH1); assay type: biochemical
T2 construct: JAK3-JH1 (the kinase domain of JAK3)
T2 sequence (P52333 822-1111 limits assumed): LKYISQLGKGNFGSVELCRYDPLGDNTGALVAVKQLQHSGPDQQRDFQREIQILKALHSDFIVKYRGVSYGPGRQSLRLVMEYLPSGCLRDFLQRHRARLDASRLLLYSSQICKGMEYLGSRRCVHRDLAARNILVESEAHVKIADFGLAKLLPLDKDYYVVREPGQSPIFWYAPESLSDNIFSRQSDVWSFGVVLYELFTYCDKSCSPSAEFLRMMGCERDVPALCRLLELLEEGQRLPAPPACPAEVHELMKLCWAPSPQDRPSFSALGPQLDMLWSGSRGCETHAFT
Protocol: as §1

JAK2(JH1) = molecular target: T3, JAK2(JH1) (Homo sapiens, UniProt O60674); test: Kinase (JH1) experiment, JAK2(JH1); assay type: biochemical
T3 construct: JAK2-JH1 (the kinase domain of JAK2)
T3 sequence (O60674 849-1124 limits assumed): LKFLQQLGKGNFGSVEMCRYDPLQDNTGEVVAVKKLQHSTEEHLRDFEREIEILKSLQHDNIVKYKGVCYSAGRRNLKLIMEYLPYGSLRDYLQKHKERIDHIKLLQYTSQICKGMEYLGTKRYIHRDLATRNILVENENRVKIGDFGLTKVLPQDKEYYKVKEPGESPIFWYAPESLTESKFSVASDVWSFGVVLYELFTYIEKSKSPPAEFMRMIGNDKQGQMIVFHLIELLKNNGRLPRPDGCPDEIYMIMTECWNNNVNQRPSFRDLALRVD
Protocol: as §1

JAK1(JH2) = JAK1(JH2) (Homo sapiens, UniProt P23458); test: Pseudokinase (JH2) experiment with Tb/Tracer, JAK1-JH2; assay type: binding
Chain of JAK1(JH2) (P23458 583-855 limits assumed): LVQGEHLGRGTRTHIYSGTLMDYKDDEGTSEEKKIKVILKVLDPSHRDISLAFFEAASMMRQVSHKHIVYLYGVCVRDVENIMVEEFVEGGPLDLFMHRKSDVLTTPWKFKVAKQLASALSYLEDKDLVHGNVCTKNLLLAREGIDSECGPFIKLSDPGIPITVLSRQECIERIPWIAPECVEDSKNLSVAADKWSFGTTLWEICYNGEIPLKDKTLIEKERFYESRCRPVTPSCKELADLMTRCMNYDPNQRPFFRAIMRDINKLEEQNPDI
Protocol: as §1

JAK1(JH1) = molecular target: T4, JAK1(JH1) (Homo sapiens, UniProt P23458); test: Kinase (JH1) experiment, JAK1(JH1); assay type: biochemical
T4 construct: JAK1-JH1 (the kinase domain of JAK1)
T4 sequence (P23458 875-1153 limits assumed): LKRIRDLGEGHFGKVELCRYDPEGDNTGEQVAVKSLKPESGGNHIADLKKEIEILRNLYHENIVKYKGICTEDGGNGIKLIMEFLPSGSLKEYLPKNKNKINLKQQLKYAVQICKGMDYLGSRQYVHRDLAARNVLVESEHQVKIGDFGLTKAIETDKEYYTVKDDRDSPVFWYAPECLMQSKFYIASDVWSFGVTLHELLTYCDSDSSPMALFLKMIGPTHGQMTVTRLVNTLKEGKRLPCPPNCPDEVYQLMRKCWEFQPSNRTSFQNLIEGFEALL
Protocol: as §1

[2] = selectivity ratio versus TYK2-JH2

Compound [2H]C([2H])([2H])NC(=O)c1nnc(NC(=O)C2CC2)cc1Nc1ccccc1S(=O)(=O)C1CC1 [Compound 1] has a pIC50 [1] of 5.55.

With [2H]C([2H])([2H])NC(=O)c1nnc(NC(=O)C2CC2)cc1Nc1nccnc1S(=O)(=O)C1CC1 [Compound 2] the pIC50 [1] was 6.06.

In the case of [2H]C([2H])([2H])NC(=O)c1nnc(NC(=O)C2CC2)cc1Nc1ncccc1S(=O)(=O)C1CC1 [Compound 3], the pIC50 [1] was 7.19, the pIC50 (TYK2(JH2); pseudokinase domain) was 9.49 and the “IC50Other/IC50TYK2-JH2, TYK2(JH2)” value (TYK2(JH2); reference ratio, TYK2-JH2 versus itself) was 1. The pIC50 (TYK2(JH1); kinase domain) was 5.37, the “IC50Other/IC50TYK2-JH2, TYK2(JH1)” value (TYK2(JH1); [2]) was 13480 and the pIC50 (JAK3(JH1); kinase domain) was 5.62. The “IC50Other/IC50TYK2-JH2, JAK3(JH1)” value (JAK3(JH1); [2]) was 7432, the pIC50 (JAK2(JH1); kinase domain) was 5.55 and the “IC50Other/IC50TYK2-JH2, JAK2(JH1)” value (JAK2(JH1); [2]) was 8790. The pIC50 (JAK1(JH2); pseudokinase domain) was 7.27, the “IC50Other/IC50TYK2-JH2, JAK1(JH2)” value (JAK1(JH2); [2]) was 166 and the pIC50 (JAK1(JH1); kinase domain) was 5.50. For the same compound, the “IC50Other/IC50TYK2-JH2, JAK1(JH1)” value (JAK1(JH1); [2]) was 9955.

In the case of [2H]C([2H])([2H])NC(=O)c1nnc(NC(=O)C2CC23CC3)cc1Nc1ncccc1S(=O)(=O)C1CC1 (stereo not drawn) [Compound 4], the pIC50 [1] was 6.77.

[2H]C([2H])([2H])NC(=O)c1nnc(NC(=O)C2CC23CC3)cc1Nc1nccnc1S(=O)(=O)C1CC1 (stereo not drawn) [Compound 5] was tested, and the pIC50 [1] was 5.68.

[2H]C([2H])([2H])NC(=O)c1cnc(NC(=O)C2CC2)cc1Nc1ncccc1S(=O)(=O)C1CC1 [Compound 6] was tested, and the pIC50 [1] was 6.89.
